US20140271667A1, “Methods and Compositions for Neoadjuvant Therapy” (The Wistar Institute of Anatomy and Biology, priority 2013, published 2014)
“Also recorded” adds a separate entry of the source.

Key:
Src = experiment: Western blotting, Src phosphorylation; format: cell-based, human; settings: Gamitrinib 5 μM
Procedure: (§1) Protein lysates were prepared in RIPA buffer containing 150 mM NaCl, 1.0% Triton X-100, 0.5% sodium deoxycholate, 0.1% SDS, 50 mM Tris, pH 8.0, in the presence of EDTA-free protease inhibitor cocktail (Roche) and phosphatase inhibitor cocktail 2 and 3 (Sigma Aldrich). Equal amounts of protein lysates were separated by SDS gel electrophoresis, transferred to PVDF membranes and incubated with primary antibodies of various specificities. Protein bands were detected by chemiluminescence, as described (21).

LN229 spheroids = experiment: Spheroid live/dead staining (calcein-AM/Topro-3), 2-photon microscopy; format: cell-based, human
Procedure: For cell migration experiments using a wound closure assay, confluent monolayers of MRC-5 cells were incubated with vehicle or Gamitrinib (5-10 μM), and wounded using a 10 μl pipette tip. Three micrographs/well were obtained at time=0, 16 and 24 h after wounding, and the percentage of wound closure was normalized to the maximum initial area for each well. For analysis of tumor cell invasion in 3D organotypic spheroids, tumor cells (5×10^4) were seeded onto 96-well plates coated with 1.5% agar (Difco Noble Agar) in PBS, pH 7.4. Spheroids were allowed to form over a 72 h period and then embedded in […] of bovine collagen type I (Organogenesis) in 24-well plates. Spheroids were overlaid with 1 ml of growth medium, treated with various concentrations of Gamitrinib for 72 h, and analyzed for changes in maximum invasion distance and invasion area. Quantification of live vs. dead cells under the various conditions tested was performed by staining the spheroids with calcein-AM (live, bright cluster) and Topro-3 (dead, dark spots) (Invitrogen) for 2 h. Samples were imaged using a Prairie Ultima II 2-photon microscope (Prairie Technologies, Inc, Middleton, Wis.), and stacks of 100 slices were generated in 2 channels. 3-D reconstruction of the labeled spheroids and analysis of cell staining was carried out using ImagePro Plus 3D software (Media Cybernetics, Silver Spring Md.).

LN229 cells = experiment: ATP measurement (luciferin-luciferase); format: cell-based, human; settings: Gamitrinib 5-10 μM, concentration-dependent
Procedure: Intracellular ATP concentrations were measured by the luciferin-luciferase method using an ATP measuring kit (Biochain). The ATP concentration in each extract was determined in a microplate luminometer (Beckman Coulter) against standard ATP solutions used as reference.

tumor cells [1] = experiment: F-actin staining (rhodamine-phalloidin), confocal microscopy; format: cell-based, human; settings: Gamitrinib 5 μM; fluorescence microscopy
Procedure: Tumor cells growing at low confluency (1-2×10^4/well) on optical grade glass coverslips were treated with vehicle or Gamitrinib (5 μM), fixed in 4% formaldehyde for 15 min at 37° C., washed in PBS, pH 7.4, and permeabilized with 0.1% Triton X-100 for 5 min at 22° C. Slides were washed in PBS, pH 7.4, blocked in 1% BSA/PBS for 30 min, incubated with 1:2000 dilution of phalloidin-rhodamine (Molecular Probes) for 30 min, washed in PBS, pH 7.4, and mounted in Fluoromount G medium (Southern Biotech). Slides were analyzed on a Leica TCS SP2 confocal laser microscope with a 100× oil objective.

tumor cells [2] = settings: previous data (23); cited from earlier work
bone metastatic disease = settings: orthotopic xenograft models and genetic mouse models; cited from earlier work
[3] = test system: Focal Adhesion Kinase (FAK); experiment: Western blotting, FAK phosphorylation; format: cell-based, human; settings: tumor cells (PC3); Gamitrinib 5 μM, CCCP 12.5 μM, rapamycin 0.1 μM
Procedure: as §1

PC3 cells [4] = experiment: Wound closure assay, tumor cells; format: cell-based, human; settings: Gamitrinib 5 μM, 16 and 24 h
[5] = test system: p21-activated kinases, Pak-1,2; experiment: Western blotting, Pak phosphorylation; format: cell-based, human; settings: Gamitrinib 5 μM
Procedure: as §1

PC3 cells [6] = experiment: Matrigel-coated transwell cell invasion; format: cell-based, human; settings: Gamitrinib 5 μM, 17-AAG 5 μM, CCCP 12.5 μM, 2-DG 25 mM, 16 h
Procedure: Various tumor cell types were treated as indicated in each experiment, suspended in 0.1% BSA/DMEM and seeded (1.6−3.2×10^3 cells/mm2, depending on the cell type) in the upper compartment of […] pore diameter BD transwells (BD). NIH3T3 conditioned medium was placed in the lower compartment as a chemoattractant. After 6-18 h incubations at 37° C., the transwell membranes were recovered and cells on the upper side (non-migratory) were wiped off the surface. Cells on the lower side of the membrane were fixed in methanol, rinsed in water and mounted on glass slides with Vectashield medium containing DAPI (Vector Laboratories). Migrated cells on each membrane were counted by fluorescence microscopy in 5 different fields. For cell invasion assays, transwell membranes were coated with Matrigel and processed as described above.

PC3 cells [7] = experiment: Cell proliferation by direct cell counting; format: cell-based, human; settings: vs vehicle, Gamitrinib 5 μM, CCCP 12.5 μM, 2-DG 25 mM
Procedure: Tumor cells were plated onto 96-well plates at 3.7×10^3/well and treated with vehicle or Gamitrinib (5 μM). After 24 h, cell viability was assessed with a 3 (4,5-dimethyl-thyazoyl-2-yl)2,5 diphenyltetrazolium bromide (MTT) colorimetric assay (24), or, alternatively, by Trypan blue exclusion and light microscopy. Data were background-subtracted relative to vehicle-treated cultures. In some experiments, tumor cell proliferation was assessed by direct cell counting and light microscopy.

Akt or ERK = experiment: Western blotting, Akt or ERK phosphorylation; format: cell-based, human; settings: Gamitrinib 5 μM
Procedure: as §1

ULK1 = experiment: Western blotting, ULK1 phosphorylation and level; format: cell-based, human; settings: PC3
Procedure: as §1

Raptor = experiment: Western blotting, Raptor phosphorylation; format: cell-based, human; settings: PC3; Gamitrinib 5 μM, metformin 5 mM 6 h, 17-AAG 5 μM
Procedure: as §1

Substance: Gamitrinib
- Src phosphorylation on Tyr416 (Src): inhibited the phosphorylation
- overall cell viability in a 3-D microenvironment (LN229 spheroids): not affected
- ATP production in tumor cells (LN229 cells): inhibited ATP production
- actin cytoskeletal assembly (tumor cells [1]): suppressed actin cytoskeletal assembly
- O2 consumption in tumor cells (tumor cells [2]): inhibited O2 consumption
- bone metastatic disease (bone metastatic disease): inhibit bone metastatic disease
- FAK phosphorylation on Tyr397 and Tyr925 [3]: loss of phosphorylation
- tumor cell migration in wound closure assay (PC3 cells [4]): inhibited tumor cell migration
- Pak-1,2 phosphorylation on Ser199, Ser144 and Ser20 [5]: inhibited the phosphorylation
- tumor cell invasion (PC3 cells [6]): suppressed
- tumor cell proliferation (PC3 cells [7]): did not reduce tumor cell proliferation; also recorded: did not affect cell proliferation
- Akt or ERK phosphorylation (Akt or ERK): not affected
- ULK1 phosphorylation on Ser555 (ULK1; Gamitrinib 5 μM (within 1-2 h), metformin 5 mM 6 h, 17-AAG 5 μM): phosphorylation of ULK1 on Ser555
- ULK1 phosphorylation on Ser757 (ULK1; Gamitrinib 5 μM, metformin 5 mM 6 h, 17-AAG 5 μM): decreased phosphorylation on Ser757
- total level of ULK1 (ULK1; time points of the Western blot experiment): not affected
- Raptor phosphorylation on Ser792 (Raptor): induced strong phosphorylation
